Literature values in publication PMC7114187 (Antiviral Research, 2008).

Tested on: NA^WT(WSN) with H274Y mutation
Conditions: cited from earlier work

Structure (SMILES): CCOC(=O)C1=C[C@@H](OC(CC)CC)[C@H](NC(C)=O)[C@@H](N)C1 [Oseltamivir, oseltamivir]
- fold increase in the IC50 by H274Y mutation: 754 fold
